Data taken from ChEMBL document CHEMBL1201862, “PubChem BioAssay data set” (2004).
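Cells were grown in 96-well plates and exposed to each compound for 48 hours at five concentrations; endpoints were interpolated linearly between bracketing concentrations, or set to the highest concentration if not reached. The concentration for 50% growth inhibition is given as GI50.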 The source made the active and inactive calls. No stated cut-off is given here; in the data, active = GI50 up to about 1.1 µM and inactive = higher.

Assays:
Assay in all cases: NCI tumour cell line growth inhibition, 48 h
[1] = tested on: NCI-H522
[2] = tested on: PC-3
[3] = tested on: RXF 393
[4] = tested on: SK-OV-3
[5] = tested on: SR
[6] = tested on: M14
[7] = tested on: OVCAR-8
[8] = tested on: MOLT-4
[9] = tested on: MDA-MB-231
[10] = tested on: HCC 2998
[11] = tested on: K562
[12] = tested on: HCT-116
[13] = tested on: T47D
[14] = tested on: HT-29
[15] = tested on: HOP-92
[16] = tested on: HL-60
[17] = tested on: NCI-H460
[18] = tested on: OVCAR-4
[19] = tested on: SF-539
[20] = tested on: HOP-62

Row | Structure (SMILES) | GI50 [1] | GI50 [2] | GI50 [3] | GI50 [4] | GI50 [5] | GI50 [6] | GI50 [7] | GI50 [8] | GI50 [9] | GI50 [10] | GI50 [11] | GI50 [12] | GI50 [13] | GI50 [14] | GI50 [15] | GI50 [16] | GI50 [17] | GI50 [18] | GI50 [19] | GI50 [20]
1 | CCOP(=O)(OCC)C(c1ccccc1)N(C(=O)NC(F)(F)F)c1ccc(C)cc1 (stereo not given) | > 100 µM (inactive) | > 100 µM (inactive) | > 100 µM (inactive) | > 100 µM (inactive) | > 100 µM (inactive) | > 100 µM (inactive) | > 100 µM (inactive) | > 100 µM (inactive) | > 100 µM (inactive) | > 100 µM (inactive) | > 100 µM (inactive) | > 100 µM (inactive) | 83.4 µM (inactive) | > 100 µM (inactive) | 19.1 µM (inactive) | > 100 µM (inactive) | > 100 µM (inactive) | > 100 µM (inactive) | > 100 µM (inactive) | > 100 µM (inactive)
2 | O=c1cc(/N=N\c2ccc(Cl)cc2)[nH]c(=O)[nH]1 | 1.71 µM (inactive) | 7.05 µM (inactive) | 6.37 µM (inactive) | 14.7 µM (inactive) | 1.2 µM (inactive) | 3.95 µM (inactive) | 5.68 µM (inactive) | 2.9 µM (inactive) | 3.6 µM (inactive) | 3.78 µM (inactive) | 3.43 µM (inactive) | 1.94 µM (inactive) | 3.18 µM (inactive) | 2.35 µM (inactive) | 2.07 µM (inactive) | 1.11 µM (active) | 5.52 µM (inactive) | 4.42 µM (inactive) | 4.44 µM (inactive) | 7.74 µM (inactive)
3 | ClC1(c2ccccc2)c2ccc(Br)cc2-c2cc(Br)ccc21 | 14.2 µM (inactive) | 17.4 µM (inactive) | 18.4 µM (inactive) | 17.6 µM (inactive) | 32.7 µM (inactive) | 14.2 µM (inactive) | 18.2 µM (inactive) | 32.5 µM (inactive) | 16.7 µM (inactive) | 19.7 µM (inactive) | > 100 µM (inactive) | 14.9 µM (inactive) | 19.7 µM (inactive) | 12.3 µM (inactive) | 15.6 µM (inactive) | 19.3 µM (inactive) | 14.3 µM (inactive) | 14.1 µM (inactive) | 18.7 µM (inactive) | 19.3 µM (inactive)
4 | COc1cc(CCNC2=CC(=O)c3nc[nH]c3C2=O)ccc1O | 22.7 µM (inactive) | 26.4 µM (inactive) | 43.2 µM (inactive) | 34.4 µM (inactive) | 30.7 µM (inactive) | 17.5 µM (inactive) | 19.6 µM (inactive) | 32.6 µM (inactive) | 30.9 µM (inactive) | 20.7 µM (inactive) | 34.1 µM (inactive) | 19.6 µM (inactive) | 20.7 µM (inactive) | 23.6 µM (inactive) | 25.3 µM (inactive) | 25.6 µM (inactive) | 25.7 µM (inactive) | 15.4 µM (inactive) | 34.5 µM (inactive) | 40.1 µM (inactive)
5 | Brc1ccc(CCNCCN2CCCCC2)cc1 | 16.4 µM (inactive) | 15.6 µM (inactive) | 33.6 µM (inactive) | 21.2 µM (inactive) | > 100 µM (inactive) | 15.6 µM (inactive) | 16.5 µM (inactive) | 62.1 µM (inactive) | 8.05 µM (inactive) | 14.5 µM (inactive) | 4.1 µM (inactive) | 12.1 µM (inactive) | 15.6 µM (inactive) | 4 µM (inactive) | 10.8 µM (inactive) | 33 µM (inactive) | 14.7 µM (inactive) | 19.3 µM (inactive) | 10.9 µM (inactive) | 20.4 µM (inactive)
6 | C/C(=N/NC(=S)N1CCCCC1)c1ccccc1O | 26.5 µM (inactive) | 28.8 µM (inactive) | > 31.6 µM (inactive) | > 31.6 µM (inactive) | > 10 µM (inactive) | > 31.6 µM (inactive) | > 31.6 µM (inactive) | > 31.6 µM (inactive) | > 100 µM (inactive) | > 31.6 µM (inactive) | 22.8 µM (inactive) | > 10 µM (inactive) | 8.26 µM (inactive) | 23.1 µM (inactive) | > 31.6 µM (inactive) | > 31.6 µM (inactive) | 22.6 µM (inactive) | > 31.6 µM (inactive) | > 100 µM (inactive) | > 100 µM (inactive)
7 | CCCCN(CCCC)CC(=O)c1ccc2cc(Cl)c3ccccc3c2c1 | 16.4 µM (inactive) | 32 µM (inactive) | 13.4 µM (inactive) | 31 µM (inactive) | 16.1 µM (inactive) | 76 µM (inactive) | 20 µM (inactive) | 31.5 µM (inactive) | 31.4 µM (inactive) | 32.1 µM (inactive) | 24.9 µM (inactive) | 43.1 µM (inactive) | 17.7 µM (inactive) | 17.4 µM (inactive) | 33.5 µM (inactive) | 24.1 µM (inactive) | 18.3 µM (inactive) | 24.2 µM (inactive) | 42.6 µM (inactive) | 50 µM (inactive)
8 | COc1ccc2nc3cc([N+](=O)[O-])ccc3c(NNc3ccc(Cl)cc3)c2c1 | 22.6 µM (inactive) | 24.8 µM (inactive) | > 39.7 µM (inactive) | 80 µM (inactive) | 12.5 µM (inactive) | 34.7 µM (inactive) | 21.1 µM (inactive) | 26.1 µM (inactive) | 19.6 µM (inactive) | 8.39 µM (inactive) | 14.8 µM (inactive) | 5.07 µM (inactive) | 32.5 µM (inactive) | 15.2 µM (inactive) | 20.9 µM (inactive) | 23.1 µM (inactive) | 2.88 µM (inactive) | 38.5 µM (inactive) | 37.8 µM (inactive) | 21.8 µM (inactive)
9 | C[C@@H](CO)C1=CC(C#C[Si](C)(C)C)N(C(=O)Oc2ccccc2)c2ccccc21 (stereo not given in full) | 16.8 µM (inactive) | 19.6 µM (inactive) | 5.86 µM (inactive) | 23.3 µM (inactive) | 5.65 µM (inactive) | 16.3 µM (inactive) | 17.5 µM (inactive) | 3.29 µM (inactive) | 17.7 µM (inactive) | 15.2 µM (inactive) | 1.49 µM (inactive) | 15.3 µM (inactive) | 18.2 µM (inactive) | 16 µM (inactive) | 11.7 µM (inactive) | 17.1 µM (inactive) | 18.1 µM (inactive) | 12.6 µM (inactive) | 17.8 µM (inactive) | 15 µM (inactive)
10 | COc1cccc(N2C(=O)C3c4[nH]c5ccccc5c4C4CCCC4C3C2=O)c1 (stereo not given) | > 10 µM (inactive) | 9.4 µM (inactive) | 9.04 µM (inactive) | 6.64 µM (inactive) | 1.48 µM (inactive) | 3.06 µM (inactive) | 3.74 µM (inactive) | > 10 µM (inactive) | 2.25 µM (inactive) | > 10 µM (inactive) | > 10 µM (inactive) | 2.87 µM (inactive) | > 10 µM (inactive) | 5.69 µM (inactive) | 3.59 µM (inactive) | > 10 µM (inactive) | 4.26 µM (inactive) | 2.26 µM (inactive) | 7 µM (inactive) | 2.52 µM (inactive)
11 | C[C@]12Cc3cnn(-c4ccc(F)cc4)c3NC1CC[C@@H]1C2CC[C@@]2(C)C1CC[C@@H]2O (stereo not given in full) | 12.2 µM (inactive) | 10 µM (inactive) | 1.16 µM (inactive) | 11.7 µM (inactive) | 0.537 µM (active) | 11.1 µM (inactive) | 12.5 µM (inactive) | 2.5 µM (inactive) | 6.97 µM (inactive) | 5.41 µM (inactive) | 2.94 µM (inactive) | 3.94 µM (inactive) | 2.65 µM (inactive) | 1.83 µM (inactive) | 11 µM (inactive) | 1.61 µM (inactive) | 3.65 µM (inactive) | 13.2 µM (inactive) | 1.55 µM (inactive) | 9.75 µM (inactive)
12 | NC(=S)N/N=C/c1ncccc1N [TRIAPINE] | 2.03 µM (inactive) | 1.57 µM (inactive) | 1.07 µM (active) | > 8.55 µM (inactive) | 0.403 µM (active) | 0.583 µM (active) | 0.568 µM (active) | 0.438 µM (active) | 5.28 µM (inactive) | 1.62 µM (inactive) | 3.13 µM (inactive) | 0.986 µM (active) | 4.39 µM (inactive) | 1.93 µM (inactive) | 0.553 µM (active) | 1.03 µM (active) | 1.68 µM (inactive) | 7.48 µM (inactive) | 0.239 µM (active) | 1.19 µM (inactive)
13 | COc1cc(/C=C2\C[C@H]3[C@@H]4CC=C5C[C@@H](N6CCCC6)CC[C@]5(C)[C@H]4CC[C@]3(C)[C@H]2O)cc(OC)c1OC | 13.4 µM (inactive) | 13.4 µM (inactive) | 7.57 µM (inactive) | 18.6 µM (inactive) | 2.63 µM (inactive) | 2.2 µM (inactive) | 11 µM (inactive) | 8.11 µM (inactive) | 17.5 µM (inactive) | 7.83 µM (inactive) | 13 µM (inactive) | 13.2 µM (inactive) | 20 µM (inactive) | 3.38 µM (inactive) | 12.5 µM (inactive) | 9.12 µM (inactive) | 3.78 µM (inactive) | 13.8 µM (inactive) | 16.3 µM (inactive) | 16.1 µM (inactive)
14 | O=c1c2c(no[n+]2[O-])c2ccccc2n1-c1ccccc1 | 1.73 µM (inactive) | 14.3 µM (inactive) | 6.55 µM (inactive) | 14.6 µM (inactive) | 2.82 µM (inactive) | 2.65 µM (inactive) | 6.18 µM (inactive) | 3.03 µM (inactive) | 12.6 µM (inactive) | 10.5 µM (inactive) | 2.74 µM (inactive) | 2.17 µM (inactive) | 12.9 µM (inactive) | 4.89 µM (inactive) | 8.47 µM (inactive) | 2.12 µM (inactive) | 8.2 µM (inactive) | 6.18 µM (inactive) | 8.26 µM (inactive) | 15.1 µM (inactive)
